Legend:
slice of a rat heart = assay: spontaneous activity potential of cultivated rat heart slice on integrated multiple electrode; format: cell-based; settings: final concentration of 1 mM, added on the fifth day of the culturing
Description: This slice of a rat heart has been cultivated as explained below. […] The same culture medium as described in the first example was used. The structure of the integrated multiple electrode 2 and the surface processing was the same as described in the first example. In order to increase the adhesive strength between the tissue (the cells) and the microelectrodes 11 of the integrated multiple electrode 2, collagen gel (under 50 μm thick) has been applied to the surface of the integrated multiple electrode 2 before the culturing. Then the rat heart slice is placed and cultivated on the collagen gel where the microelectrodes 11 are. The rat heart slice is prepared, so that a sinoatrial node or an atrioventricular node is included. […] This culturing method is explained below. (a) A heart is taken from a two days old SD rat, and immersed in a Hanks' balanced salt solution cooled with ice water, with 0.25 vol. % D-glucose. The hanks' balanced salt solution is renewed several times to rinse out the blood completely. (b) Careful incision and preparation of a heart slice is performed, so that a sinoatrial node and an atrioventricular node are included in the heart slice. (c) The slice is adjusted with micro-scissors used in eye surgery to a size of about 1×1 mm. […]

[1] = tested on: slice of the cerebral cortex of a rat; assay: induced potential of cultivated rat cerebral cortex slice on integrated multiple electrode; format: cell-based; settings: for chronic effect on the induced potential: 3 days after addition on the third day of culturing
Description: In this example, a slice of the cerebral cortex of a rat was used as nervous tissue and cultivated with the culturing method described below. As a change in the physical and chemical environment, the stimulant drug methamphetamine has been added to the culturing fluid. Furthermore, the electrophysiological properties of the tissue or cells, that is the induced potential when a stimulus has been applied, were measured as the physical and chemical properties of the tissue or cells.
Preceding the culturing of the cells, the surface of the integrated multiple electrode 2 was covered with collagen gel not thicker than 50 μm, to promote the adhesive strength between the microelectrodes 11 of the integrated multiple electrode 2 and the cells. Then the cerebral cortex slice of the rat (not thicker than 500 μm) was placed and cultivated on top of the microelectrodes 11 and the collagen gel. FIGS. 10(a)-(e) show the measured induced potentials 30 min after methamphetamine has been added in different concentrations to the culture medium on the sixth day of culturing, and FIGS. 11(a)-(c) show the measured induced potentials 3 days after methamphetamine has been added in different concentrations to the culture medium on the third day of culturing, together with the induced potential before the addition of the methamphetamine. In other words, FIGS. 10(a)-(e) show the acute effect of the methamphetamine and FIGS. 11(a)-(c) show the chronic effect of the methamphetamine.
(4-2) Culturing Method for a Rat Cerebral Cortex Slice
(a) A brain is taken from a two days old SD rat, and immersed in a Hanks' balanced salt solution cooled in iced water, with 0.25 vol. % D-glucose.
(b) In the cooled Hanks' balanced salt solution with 0.25 vol.% D-glucose, the meninges attached to the brain is removed carefully without damaging the cerebral cortex with a sharp-tipped pincette.
(c) A section is made with micro-scissors used in eye surgery, about 500 μm from the corpus callosum on one side of the cerebral cortex from which the meninges has been removed along the corpus callosum from the occipital lobe towards the frontal lobe.
(d) Next, a slice is prepared with micro-scissors used in eye surgery by cutting vertically 200-300 μm into the cerebral cortex from the sectional plane described under (c).
(e) Furthermore, the slice is adjusted with micro-scissors used in eye surgery to a size of about 1×1 mm.
(f) The integrated multiple electrode, the preparation of which has been explained under “(3) Surface Processing of the Integrated Multiple Electrode 2”, is taken out of the CO2 incubator, the adjusted slice of the cerebral cortex is carefully taken up without damaging it with a pipette with at least 2 mm opening diameter, and moved into the well of the integrated multiple electrode 2.
(g) The cerebral cortex is placed on the microelectrodes 11 with a layered portion pointing upwards, carefully so as not to damage the cerebral cortex, using a Pasteur pipette, the tip of which has been smoothed by heating with a burner.
(h) After the slice of the cerebral cortex has been placed on the integrated multiple electrode 2, the amount of the culture medium is adjusted so that the bottom of the slice is immersed in the culture medium and the top of the slice is in the open air.
(i) After the adjustment of the culture medium, the integrated multiple electrode 2 is placed on a Petri dish, about 5 mL of 37° C. sterile water is poured onto the Petri dish to prevent dehydration of the culture medium, and the integrated multiple electrode 2 is again placed in the CO2 incubator.
(j) While observing the amount of the culture medium, the culture medium was renewed once every day. The amount of the culture medium is adjusted as described in (i).

Compound	beat frequency of the spontaneous activity potential versus before the addition (slice of a rat heart)	chronic effect on the induced potential ([1]; 0.01 mM methamphetamine)	acute effect on the induced potential ([1]; 0.1 mM methamphetamine, 30 min after addition on the sixth day of culturing)	chronic effect on the induced potential ([1]; 0.1 mM methamphetamine)	acute effect on the induced potential (deflection) ([1]; 0.5 mM methamphetamine, 30 min after addition on the sixth day of culturing)	acute effect on the induced potential ([1]; 1 mM methamphetamine, 30 min after addition on the sixth day of culturing)	induced potential after removal of the substance (chronic) ([1]; after the methamphetamine has been removed, chronic exposure)	induced potential after removal of the substance (acute) ([1]; methamphetamine removed from the fluid, culture medium returned to usual composition)
CNCC(O)c1ccc(O)c(O)c1 (centres unmarked) [adrenaline]	noticeably higher							
CN[C@@H](C)Cc1ccccc1 [methamphetamine]		disappeared	no noticeable acute effect	disappeared almost completely	somewhat smaller	disappeared almost completely	did not recover	recovered to almost the same condition as before
